Assay results as given in PubChem BioAssay (NCI).
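Growth conditions: 96-well plates. Treatment: test compound, 48 hours, 5 concentrations. Analysis: linear interpolation between bracketing concentrations; unreached endpoints set to highest concentration. The concentration for 50% growth inhibition is given as GI50. At the TGI there is no net growth.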

Tests used:
Experiment in all cases: DTP human tumour cell line panel, 48 h
ACHN renal = tested on: ACHN renal
CAKI-1 renal = tested on: CAKI-1 renal
COLO 205 colon = tested on: COLO 205 colon
DU-145 prostate = tested on: DU-145 prostate
EKVX NSCLC = tested on: EKVX NSCLC
HCT-15 colon = tested on: HCT-15 colon
HL-60(TB) leukemia = tested on: HL-60(TB) leukemia
HOP-62 NSCLC = tested on: HOP-62 NSCLC
HOP-92 NSCLC = tested on: HOP-92 NSCLC
HS 578T breast = tested on: HS 578T breast
MDA-MB-231 breast = tested on: MDA-MB-231 breast
NCI/ADR-RES ovarian = tested on: NCI/ADR-RES ovarian
OVCAR-5 ovarian = tested on: OVCAR-5 ovarian
SK-OV-3 ovarian = tested on: SK-OV-3 ovarian
T-47D breast = tested on: T-47D breast
UACC-62 melanoma = tested on: UACC-62 melanoma
UO-31 renal = tested on: UO-31 renal

Work on `Cc1cc(C(C)(C)CC(C)(C)C)ccc1OCCOCC[N+](C)(C)Cc1ccccc1` yielded a GI50 (ACHN renal) of 3.19 µM, a TGI (ACHN renal) of 11.3 µM and a GI50 (CAKI-1 renal) of 10.4 µM. It also gave a TGI (CAKI-1 renal) of 39 µM, a GI50 (COLO 205 colon) of 1250 nM and a TGI (COLO 205 colon) of 2640 nM. For the same compound, the GI50 (DU-145 prostate) was 1660 nM, the TGI (DU-145 prostate) was 3.13 µM and the GI50 (EKVX NSCLC) was 1550 nM. For the same compound, the TGI (EKVX NSCLC) was 4.07 µM, the GI50 (HCT-15 colon) was 9.8 µM and the TGI (HCT-15 colon) was 44 µM. It also gave a GI50 (HL-60(TB) leukemia) of 436 nM, a TGI (HL-60(TB) leukemia) of 1620 nM and a GI50 (HOP-62 NSCLC) of 1440 nM. For the same compound, the TGI (HOP-62 NSCLC) was 2840 nM, the GI50 (HOP-92 NSCLC) was 1030 nM and the TGI (HOP-92 NSCLC) was 2460 nM. The GI50 (HS 578T breast) was 1860 nM, the TGI (HS 578T breast) was 5.16 µM and the GI50 (MDA-MB-231 breast) was 1330 nM. It also gave a TGI (MDA-MB-231 breast) of 2750 nM, a GI50 (NCI/ADR-RES ovarian) of 15.3 µM and a TGI (NCI/ADR-RES ovarian) of 51 µM. For the same compound, the GI50 (OVCAR-5 ovarian) was 1710 nM, the TGI (OVCAR-5 ovarian) was 3.45 µM and the GI50 (SK-OV-3 ovarian) was 1440 nM. For the same compound, the TGI (SK-OV-3 ovarian) was 2780 nM, the GI50 (T-47D breast) was 388 nM and the TGI (T-47D breast) was 1810 nM. For the same compound, the GI50 (UACC-62 melanoma) was 967 nM, the TGI (UACC-62 melanoma) was 2210 nM and the GI50 (UO-31 renal) was 2250 nM. For the same compound, the TGI (UO-31 renal) was 6.65 µM.
